The subject of assay [1] is durch intravenöse Gabe von 310 ng Angiotensin hervorgerufene Pressorreaktion. Description: Inhibition of the angiotensin-induced pressor response in the anaesthetised rat after intraduodenal administration. The class given is in vivo, Ratte. The conditions noted are these: narcotised rat. The protocol: Die erfindungsgemäßen Verbindungen der Formel I sind Hemmer des Angiotensin-Converting-Enzyme (ACE), das die Umwandlung von Angiotensin I in das pressorisch wirksame Angiotensin II katalysiert. […] Besonders interessant ist hierbei der langsame Wirkungseintritt und die lange Wirkdauer der Verbindung. So beobachtet man bei intraduodenaler Gabe von 0,3 mg/kg Körpergewicht eine Hemmung um 15 % nach 10 min, 30 % nach 20 min, 60 % nach 30 min und 70 % nach 45 min; die Wirkung hält länger als 6 Stunden an.

Assay [2] has as its target Angiotensin-Converting-Enzyme (ACE) (Homo sapiens, UniProt P12821). The assay can be described thus: ACE inhibition in vitro assay (Biochem. Biophys. Acta, 206, 136 (1970)). The assay is classed as biochemical.

A value given as a limit tells only on which side of the number the result lay.

Sequence of Angiotensin-Converting-Enzyme (ACE) (P12821 30-1306, species assumed): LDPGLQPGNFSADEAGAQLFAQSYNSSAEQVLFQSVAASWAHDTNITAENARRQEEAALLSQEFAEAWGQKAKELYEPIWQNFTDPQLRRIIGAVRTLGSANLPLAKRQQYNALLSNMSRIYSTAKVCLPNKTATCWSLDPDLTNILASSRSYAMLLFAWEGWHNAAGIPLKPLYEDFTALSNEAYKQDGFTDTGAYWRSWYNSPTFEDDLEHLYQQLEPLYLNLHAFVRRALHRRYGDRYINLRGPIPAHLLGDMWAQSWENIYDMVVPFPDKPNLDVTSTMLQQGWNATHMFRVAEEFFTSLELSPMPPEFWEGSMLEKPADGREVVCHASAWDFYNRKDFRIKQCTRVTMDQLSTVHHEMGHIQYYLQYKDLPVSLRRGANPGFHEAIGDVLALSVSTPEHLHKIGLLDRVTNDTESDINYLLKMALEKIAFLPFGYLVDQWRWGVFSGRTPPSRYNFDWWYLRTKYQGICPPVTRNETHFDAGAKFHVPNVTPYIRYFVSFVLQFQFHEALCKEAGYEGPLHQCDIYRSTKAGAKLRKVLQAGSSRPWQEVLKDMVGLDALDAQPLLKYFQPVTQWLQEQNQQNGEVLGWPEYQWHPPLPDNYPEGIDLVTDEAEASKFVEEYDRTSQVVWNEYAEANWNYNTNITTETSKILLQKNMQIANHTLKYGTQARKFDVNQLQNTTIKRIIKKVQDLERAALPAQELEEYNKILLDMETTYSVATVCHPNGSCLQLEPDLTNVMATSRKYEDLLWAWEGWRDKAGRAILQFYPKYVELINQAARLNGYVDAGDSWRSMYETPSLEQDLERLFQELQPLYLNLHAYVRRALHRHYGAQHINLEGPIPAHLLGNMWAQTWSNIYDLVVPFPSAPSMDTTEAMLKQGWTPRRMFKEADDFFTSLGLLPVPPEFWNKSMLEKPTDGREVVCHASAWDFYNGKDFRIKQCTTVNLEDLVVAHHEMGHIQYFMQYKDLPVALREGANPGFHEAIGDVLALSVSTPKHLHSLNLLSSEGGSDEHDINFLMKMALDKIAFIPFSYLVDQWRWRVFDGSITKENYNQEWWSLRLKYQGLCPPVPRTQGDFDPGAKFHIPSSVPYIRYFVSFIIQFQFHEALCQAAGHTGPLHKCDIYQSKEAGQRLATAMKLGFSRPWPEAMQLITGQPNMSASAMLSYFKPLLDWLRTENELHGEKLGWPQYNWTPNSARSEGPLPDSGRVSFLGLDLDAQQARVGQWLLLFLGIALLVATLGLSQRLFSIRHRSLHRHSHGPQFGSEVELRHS

In general, IC50 refers to the concentration that gives 50% inhibition. High values mean a need for much substance, low ones inhibition by little substance. As to `NCCCC[C@H](N[C@@H](CCC1CCCCC1)C(=O)O)C(=O)N1[C@H](C(=O)O)C[C@@H]2CCCC[C@@H]21` [N-(1-S-CarboxY-3-cyclohexyl-propyl)-S-lysyl-2S,3aS,7aS-octahydroindol-2-carbonsäure], the Hemmung in assay [1] (intraduodenal 0,3 mg/kg Körpergewicht, after 10 min) worked out at 15%; in assay [1] (intraduodenal 0,3 mg/kg Körpergewicht, after 20 min), 30%; in assay [1] (intraduodenal 0,3 mg/kg Körpergewicht, after 30 min) it was 60%; in assay [1] (intraduodenal 0,3 mg/kg Körpergewicht, after 45 min), 70%. The “Wirkdauer (die Wirkung hält an)” value in assay [1] (intraduodenal 0,3 mg/kg Körpergewicht, duration of effect) was greater than 6 Stunden. For the same compound, the “Hemmwirkung auf die Pressorreaktion” value in assay [1] (intraduodenal administration, 310 ng Angiotensin i.v., qualitative) is on record as “starke Hemmwirkung”. The compound further had an IC50 in assay [2] of 3.4 nM.

Values taken from patent publication EP0154886A2, “Carboxyalkyl dipeptide derivatives, process for their preparation, agents containing them, and their use” (HOECHST AKTIENGESELLSCHAFT, priority 1984, dated 1985).
